From publication PMC9820444, “Design and Synthesis of Acridine-Triazole and Acridine-Thiadiazole Derivatives and Their Inhibitory Effect against Cancer Cells” (International Journal of Molecular Sciences, 2022)
Where two headings read alike, the source gives them in different places. Marks after values point to notes of the source that are not given here.

Columns and labels:
[1] = system: human gastric cancer cells-803 (MGC-803); experiment: MTT antiproliferative assay, MGC-803; format: cell-based; details: Homo sapiens, MGC-803, MTT, read-out: Effect against cell viability (IC50), MGC-803
[2] = system: human normal liver cells (LO2); experiment: Cytotoxicity against normal liver cells LO2; format: cell-based; details: Homo sapiens, MTT, read-out: Effect against cell viability (IC50), LO2
zebrafish embryos = system: zebrafish embryos; set-up: mortality rate of zebrafish embryos: dose or concentration left out as unconfirmed; details: for MAR (malformation rate) / MOR (mortality rate): zebrafish embryos 72 hpf
[3] = system: hepatocellular carcinoma bel-7404 (BEL-7404); experiment: MTT antiproliferative assay, BEL-7404; format: cell-based, human; details: Homo sapiens, read-out: Effect against cell viability (IC50), BEL-7404
[4] = system: large cell lung cancer cells (NCI-H460); experiment: MTT antiproliferative assay, NCI-H460; format: cell-based, human; details: Homo sapiens, read-out: Effect against cell viability (IC50), NCI-H460
MGC80-3 cells [5] = experiment: Cell cycle analysis by flow cytometry, MGC80-3; format: cell-based, human; details: MGC80-3, 5.52 μM (IC50), 48 h; control 8.91%
Description: Compared to control, both compounds 4h and 5d interfered with the cell cycles of T24 and MGC80-3 cells, respectively.
(§1) The apoptosis assay and the cell cycle analysis were carried out by cytometry (FACSVerse, BD, Piscataway, NJ, USA) at an excitation wavelength of 488 nm according to the method described in the literature with slight modifications. The cells were seeded at 2 × 10^6/well and washed by cold PBS. The buffer solutions were prepared using 0.1 M pH 7.4 Hepes/NaOH, 1.4 M NaCl, and 25 mM CaCl2.

[6] = system: subintestinal veins (SIVs) in zebrafish embryos; experiment: Zebrafish angiogenesis assay (subintestinal veins, NBT/BCIP staining); format: in vivo; details: 1 mg/mL
Excerpt: Currently, the zebrafish has emerged as a valuable model organism to substitute traditional models for studying angiogenesis inhibitors. The genes of zebrafish show 70–80% similarity to humans, and the vascular structure of zebrafish has high similarity to that of other vertebrates. Therefore, the subintestinal veins (SIVs) in the zebrafish embryos are used as evaluation indicators for anti-angiogenesis inhibitors. In this study, NBT/BCIP vascular staining was used to observe the angiogenesis effect of representative drugs (4h, 4f, 5d, 5h, 6g and 6h) in a zebrafish model. […] Compared with the blank control group, the area of the meshed pattern vessel and the number of vascular branches in the network decreased after the administration of compounds 4h, 5d, 5h and 6h.
The 24 hpf zebrafish embryos were dechorionated with a 1 gL^−1 pronase treatment and maintained in distilled water in 12-well cell culture plates (each well contained 20 embryos). A negative control group containing zebrafish embryos in distilled water and a vehicle treatment group that was treated with 2% dimethyl sulfoxide (DMSO) were prepared. The anti-angiogenic compounds were diluted to 1 mg/mL. After incubating at 28 °C for […], the embryos were immersed in 4% paraformaldehyde and dehydrated by gradient ethanol. Subsequently, the embryos were balanced in NTMT buffer (5 M NaCl + 1 M Tris [pH 9.0–9.5] + 1 M MgCl2+ 10% Tween), and nitrotetrazolium blue chloride (NBT) and p-toluidine salt (BCIP) staining were performed. To evaluate the effect of compounds on the angiogenesis of zebrafish embryos, the growth of embryonic sub-intestinal veins (SIVs) at 72 hpf was observed using an IX71 Olympus microscope (Hamburger, Germany). The length of the SIVs was calculated using the image J 1.8.0 software (Bethesda, MD, USA).

MGC80-3 cells [7] = experiment: Apoptosis by Annexin V-FITC/PI flow cytometry, MGC80-3; format: cell-based, human; details: for apoptosis percentage (early and late): control 0.586%
Description: The apoptosis ratios of MGC80-3 or T24 cell lines induced by the selected compounds at the concentration of IC50 and 0.5 IC50 were quantitatively determined by flow cytometry. Four quadrant images (Q1, Q2, Q3 and Q4) were observed by flow cytometric analysis. […] […] After treatment with compound 6h, 5.62% (3.43 μM) and 14.25% (6.85 μM) of the cells were apoptotic. These were higher percentages than the one observed in the control (0.586%). […] The results evidently illustrate that representative compounds 5d and 6h or 4h and 6h could suppress cell proliferation by inducing apoptosis in the early apoptotic period.
as §1

[8] = system: human foreskin fibroblasts (HFF); experiment: MTT antiproliferative assay, HFF; format: cell-based; details: Homo sapiens, Fibroblast, read-out: Effect against cell viability (IC50), HFF
[9] = system: bladder cancer cells (T24); experiment: MTT antiproliferative assay, T24; format: cell-based, human; details: Homo sapiens, read-out: Effect against cell viability (IC50), T24

## COc1ccc2nc3ccccc3c(-n3c(-c4ccc([N+](=O)[O-])cc4)n[nH]c3=S)c2c1 [5d, 4-(2-methoxyacridin-9-yl)-5-(4-nitrophenyl)-2,4-dihydro-3H-1,2,4-triazole-3-thione]
[1]
  IC50: 5.52 ± 1.04 µM
[2]
  IC50: 51.8 ± 3.46 µM
Zebrafish embryos
  mortality rate of zebrafish embryos: ~0%
Zebrafish embryos; 2.0 mg.L^−1
  malformation rate of zebrafish embryos: less than 15%
Zebrafish embryos; 1 mg/mL
  MAR (malformation rate): 5% ^b
  MOR (mortality rate): 0%
Zebrafish embryos; 1.5 mg/mL
  MAR (malformation rate): 10% ^a
  MOR (mortality rate): 0%
Zebrafish embryos; 2 mg/mL
  MAR (malformation rate): 10% ^c
  MOR (mortality rate): 0%
[3]
  IC50: 25.1 ± 2.89 µM
[4]
  IC50: 19.4 ± 1.58 µM
MGC80-3 cells [5]
  G2 phase population: 13.32%
[6]; 72 hpf zebrafish embryos
  reduction in the vessel length (SIVs) compared to the mean vessel length for the controls: ~50%
[6]; zebrafish embryos, compared with blank control group
  area of the meshed pattern vessel and number of vascular branches in the network: decreased
MGC80-3 cells [7]; MGC80-3, 0.5 IC50 (5d 2.76 μM; 6h 3.43 μM)
  apoptosis percentage (early and late): 6.616%
MGC80-3 cells [7]; MGC80-3, IC50 (5d 5.52 μM; 6h 6.85 μM), 24 h, control 93.0%
  Q4 (live) cells: 81.2%
MGC80-3 cells [7]; MGC80-3, IC50 (5d 5.52 μM; 6h 6.85 μM)
  apoptosis percentage (early and late): 17.51%
[8]
  IC50: 62.9 ± 1.9 µM
[9]
  IC50: 15.9 ± 1.38 µM
